Laboratory results from PubChem BioAssay AID248 (DTP/NCI, 2004).
“And” between values parts separate entries of the source, which are not always exact repeats. Equal values may be shown once. Toxic doses and inconclusive results are not listed. Rule as the data show it: active = T/C of 150% or more; inactive = T/C below 125%.

Tested on: L1210 leukemia ip in BDF1 mice, survival T/C
Assay: NCI In Vivo Anticancer Drug Screen. Data for tumor model L1210 Leukemia (intraperitoneal) in B6D2F1 (BDF1) mice
Details: endpoint: mean survival time, higher = longer survival
Procedure, shortened: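 Mice bearing the transplanted tumor received compound or vehicle. Survival of the treated group was divided by that of the vehicle-treated control group to give the ratio.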

[1] = dose: 25.0 mg/kg/injection, schedule: Q01DX009 (ip), vehicle: saline
[2] = dose: 25.0 mg/kg/injection, schedule: Q04DX003 (ip), vehicle: saline
[3] = dose: 50.0 mg/kg/injection, schedule: Q01DX009 (ip), vehicle: saline
[4] = dose: 50.0 mg/kg/injection, schedule: Q04DX003 (ip), vehicle: saline
[5] = dose: 100.0 mg/kg/injection, schedule: Q04DX003 (ip), vehicle: saline
[6] = dose: 200.0 mg/kg/injection, schedule: Q04DX003 (ip), vehicle: saline
[7] = dose: 400.0 mg/kg/injection, schedule: Q04DX003 (ip), vehicle: saline
[8] = dose: 100.0 mg/kg/injection, schedule: Q01DX001 (ip), vehicle: Klucel (hydroxypropylcellulose) (HPC)
[9] = dose: 100.0 mg/kg/injection, schedule: Q04DX003 (ip), vehicle: Klucel (hydroxypropylcellulose) (HPC)
[10] = dose: 200.0 mg/kg/injection, schedule: Q01DX001 (ip), vehicle: Klucel (hydroxypropylcellulose) (HPC)
[11] = dose: 200.0 mg/kg/injection, schedule: Q04DX003 (ip), vehicle: Klucel (hydroxypropylcellulose) (HPC)
[12] = dose: 400.0 mg/kg/injection, schedule: Q04DX003 (ip), vehicle: Klucel (hydroxypropylcellulose) (HPC)
[13] = dose: 100.0 mg/kg/injection, schedule: Q04DX002 (ip), vehicle: Klucel (hydroxypropylcellulose) (HPC)
[14] = dose: 200.0 mg/kg/injection, schedule: Q04DX002 (ip), vehicle: Klucel (hydroxypropylcellulose) (HPC)
[15] = dose: 400.0 mg/kg/injection, schedule: Q04DX002 (ip), vehicle: Klucel (hydroxypropylcellulose) (HPC)
[16] = dose: 100.0 mg/kg/injection, schedule: Q01DX001 (ip), vehicle: saline
[17] = dose: 200.0 mg/kg/injection, schedule: Q01DX001 (ip), vehicle: saline
[18] = dose: 200.0 mg/kg/injection, schedule: Q01DX009 (ip), vehicle: saline
[19] = dose: 400.0 mg/kg/injection, schedule: Q01DX001 (ip), vehicle: saline
[20] = dose: 100.0 mg/kg/injection, schedule: Q01DX001 (ip), vehicle: other
[21] = dose: 200.0 mg/kg/injection, schedule: Q01DX001 (ip), vehicle: other

Measured: T/C

CCN(CC)CCc1ccccn1
inactive: dose: 12.5 mg/kg/injection, schedule: Q01DX009 (ip), vehicle: saline 98 % of control | [1] 100 % of control | [2] 106 % of control | [3] 100 % of control | [4] 103 % of control

O=C(Nc1cc([N+](=O)[O-])ccc1Cl)N(Cc1ccccc1)c1ccccc1
inactive: dose: 12.5 mg/kg/injection, schedule: Q01DX009 (ip), vehicle: Klucel (hydroxypropylcellulose) (HPC) 94 % of control and 95 % of control | dose: 25.0 mg/kg/injection, schedule: Q01DX009 (ip), vehicle: Klucel (hydroxypropylcellulose) (HPC) 94 % of control and 97 % of control | dose: 50.0 mg/kg/injection, schedule: Q01DX009 (ip), vehicle: Klucel (hydroxypropylcellulose) (HPC) 89 % of control

CC(C)/C([O-])=N\[N+](C)(C)Cc1ccccc1
inactive: [5] 105 % of control | [6] 100 % of control | [7] 98 % of control

NC(CCCCn1nnc2c(=O)[nH]cnc21)C(=O)O (centres undefined)
inactive: [5] 106 % of control | [6] 103 % of control | [7] 97 % of control

COc1cccc2c1CCC1=C2CCC2CC(=O)CCC12C (centres undefined)
inactive: dose: 100.0 mg/kg/injection, schedule: Q01DX001 (sc), vehicle: steriod suspending solution 98 % of control | dose: 200.0 mg/kg/injection, schedule: Q01DX001 (sc), vehicle: steriod suspending solution 100 % of control | dose: 400.0 mg/kg/injection, schedule: Q01DX001 (sc), vehicle: steriod suspending solution 100 % of control

CC12CCC(O)CC1CCC1C3CCCC(=O)C3CCC12 (centres undefined)
inactive: dose: 50.0 mg/kg/injection, schedule: Q01DX009 (sc), vehicle: steriod suspending solution 103 % of control | dose: 100.0 mg/kg/injection, schedule: Q01DX009 (sc), vehicle: steriod suspending solution 97 % of control | dose: 200.0 mg/kg/injection, schedule: Q01DX009 (sc), vehicle: steriod suspending solution 94 % of control

CC(C)CCCC(C)CCC1=C(O)c2ccccc2C(=O)C1=O (centres undefined)
inactive: [8] 102 % of control | [9] 101 % of control | [10] 98 % of control | [11] 97 % of control | dose: 400.0 mg/kg/injection, schedule: Q01DX001 (ip), vehicle: Klucel (hydroxypropylcellulose) (HPC) 100 % of control | [12] 97 % of control

O=c1cc[nH]c2c(Cl)cccc12
inactive: dose: 50.0 mg/kg/injection, schedule: Q01DX001 (ip), vehicle: carboxymethylcellulose (CMC) 109 % of control | dose: 100.0 mg/kg/injection, schedule: Q01DX001 (ip), vehicle: carboxymethylcellulose (CMC) 109 % of control | dose: 200.0 mg/kg/injection, schedule: Q01DX001 (ip), vehicle: carboxymethylcellulose (CMC) 114 % of control | dose: 400.0 mg/kg/injection, schedule: Q01DX001 (ip), vehicle: carboxymethylcellulose (CMC) 110 % of control

CC1(C)CC(C(=O)O)C(=O)O1 (centres undefined)
inactive: dose: 75.0 mg/kg/injection, schedule: Q01DX001 (ip), vehicle: saline 97 % of control | dose: 150.0 mg/kg/injection, schedule: Q01DX001 (ip), vehicle: saline 103 % of control | dose: 300.0 mg/kg/injection, schedule: Q01DX001 (ip), vehicle: saline 98 % of control

COc1ccc(-c2ccc(C(C)=O)cc2)cc1
inactive: [13] 90 % of control | [14] 100 % of control | [15] 100 % of control

CC(C)NNC(=O)c1cccnc1
inactive: [1] 97 % of control and 108 % of control | [3] 94 % of control and 103 % of control | [16] 95 % of control | [5] 96 % of control | [17] 96 % of control | [18] 94 % of control | [6] 98 % of control | [19] 95 % of control | [7] 96 % of control

C(=C/[PH+](c1ccccc1)c1ccccc1)/[PH+](c1ccccc1)c1ccccc1.C(=C/[PH+](c1ccccc1)c1ccccc1)/[PH+](c1ccccc1)c1ccccc1.[O-][Cl+3]([O-])([O-])O.[Rh]
inactive: dose: 100.0 mg/kg/injection, schedule: Q01DX001 (ip), vehicle: saline with Tween-80 92 % of control | dose: 400.0 mg/kg/injection, schedule: Q01DX001 (ip), vehicle: saline with Tween-80 89 % of control

CC(Cc1ccccc1)N(C)C (centres undefined)
inactive: dose: 12.5 mg/kg/injection, schedule: Q01DX001 (ip), vehicle: saline 102 % of control | dose: 25.0 mg/kg/injection, schedule: Q01DX001 (ip), vehicle: saline 94 % of control | [2] 101 % of control | dose: 50.0 mg/kg/injection, schedule: Q01DX001 (ip), vehicle: saline 94 % of control | [4] 101 % of control

CNC(=O)c1ccccc1-c1ccccc1C(=O)NC
inactive: [20] 102 % of control | [21] 102 % of control | dose: 400.0 mg/kg/injection, schedule: Q01DX001 (ip), vehicle: other 98 % of control

O=c1nc2n(CCO)c3ccccc3nc-2c(=O)[nH]1
inactive: dose: 25.0 mg/kg/injection, schedule: Q04DX002 (ip), vehicle: saline 100 % of control | dose: 50.0 mg/kg/injection, schedule: Q04DX002 (ip), vehicle: saline 106 % of control | dose: 100.0 mg/kg/injection, schedule: Q04DX002 (ip), vehicle: saline 95 % of control

O=C(O)CCCN1C/C(=C\c2ccccc2)C(=O)C1=O
inactive: [5] 104 % of control | [6] 101 % of control | [7] 98 % of control

OCC1CCCCC1CO (centres undefined)
inactive: [13] 113 % of control | [14] 107 % of control | [15] 103 % of control

Cc1ccnc(NC(=O)CCc2ccccc2)c1
inactive: [13] 95 % of control | [14] 100 % of control | [15] 92 % of control

CN(C)c1ccc(C(=O)CCCN2CCC(O)(c3ccc(C(F)(F)F)cc3)CC2)cc1
inactive: dose: 50.0 mg/kg/injection, schedule: Q01DX001 (ip), vehicle: Klucel (hydroxypropylcellulose) (HPC) 97 % of control | [8] 96 % of control | [10] 105 % of control

O=Cc1ccc(C=O)c(Cl)c1
inactive: dose: 100.0 mg/kg/injection, schedule: Q01DX009 (ip), vehicle: saline sonified 100 % of control | [9] 100 % of control | dose: 200.0 mg/kg/injection, schedule: Q01DX009 (ip), vehicle: saline sonified 87 % of control | [11] 95 % of control | dose: 400.0 mg/kg/injection, schedule: Q01DX009 (ip), vehicle: saline sonified 94 % of control | [12] 103 % of control

CCCCOC(=O)c1[nH]cnc1/N=N/N(C)CCCC
inactive: [20] 112 % of control | [21] 120 % of control

CCOC(=O)C(C(=N)C#N)C(C)=O (centres undefined)
inactive: dose: 6.25 mg/kg/injection, schedule: Q04DX003 (ip), vehicle: saline with Tween-80 98 % of control | dose: 12.5 mg/kg/injection, schedule: Q04DX003 (ip), vehicle: saline with Tween-80 98 % of control | dose: 25.0 mg/kg/injection, schedule: Q04DX003 (ip), vehicle: saline with Tween-80 97 % of control | dose: 50.0 mg/kg/injection, schedule: Q04DX003 (ip), vehicle: saline with Tween-80 88 % of control | dose: 100.0 mg/kg/injection, schedule: Q04DX003 (ip), vehicle: saline with Tween-80 103 % of control

CC1NC(=O)NC(=O)C1CCSCCC1C(=O)NC(=O)NC1C (centres undefined)
inactive: [16] 96 % of control | [17] 109 % of control | [19] 104 % of control

O=C(O)c1c[nH]c2c(Cl)cc(Cl)cc2c1=O
inactive: [17] 94 % of control | [19] 87 % of control

Oc1ccc(C2=CSC3=NCCN23)cc1
inactive: dose: 5.0 mg/kg/injection, schedule: Q01DX001 (ip), vehicle: saline 94 % of control | dose: 10.0 mg/kg/injection, schedule: Q01DX001 (ip), vehicle: saline 93 % of control | dose: 20.0 mg/kg/injection, schedule: Q01DX001 (ip), vehicle: saline 93 % of control | dose: 40.0 mg/kg/injection, schedule: Q01DX001 (ip), vehicle: saline 96 % of control | dose: 80.0 mg/kg/injection, schedule: Q01DX001 (ip), vehicle: saline 104 % of control

N#CCCNCCC#N
inactive: dose: 100.0 mg/kg/injection, schedule: Q01DX009 (ip), vehicle: saline 103 % of control | [5] 102 % of control | [18] 97 % of control | [6] 100 % of control | dose: 400.0 mg/kg/injection, schedule: Q01DX009 (ip), vehicle: saline 104 % of control | [7] 96 % of control
